# Data from ChEMBL document CHEMBL3734729, “Synthesis and comparison of the biological activity of monocyclic phosphonate, difluorophosphonate and phosphate analogs of the natural AChE inhibitor cyclophostin” (Bioorg Med Chem, 2015).
# Columns and labels:
# Acetylcholinesterase [1] = molecular target: T1, Acetylcholinesterase (Homo sapiens, UniProt P22303); experiment: Inhibition of human AChE at pH 6
# Acetylcholinesterase [2] = molecular target: T1, Acetylcholinesterase; experiment: Inhibition of human AChE at pH 8
# [3] = Drug degradation in sodium phosphate buffer at pH 8 after 24 hrs by NMR analysis; assay type: physicochemical; conditions: read-out: Drug degradation
# [4] = Drug degradation in sodium phosphate buffer at pH 8 after 1 hr by NMR analysis; assay type: physicochemical; conditions: read-out: Drug degradation
# [5] = Drug degradation in sodium phosphate buffer at pH 8 after 30 mins by NMR analysis; assay type: physicochemical; conditions: read-out: Drug degradation
# [6] = Drug degradation in sodium phosphate buffer at pH 7 after 30 mins by NMR analysis; assay type: physicochemical; conditions: read-out: Drug degradation
# [7] = Drug degradation in MES buffer at pH 6 after 24 hrs by NMR analysis; assay type: physicochemical; conditions: read-out: Drug degradation
# [8] = Drug degradation in MES buffer at pH 6 after 1 hr by NMR analysis; assay type: physicochemical; conditions: read-out: Drug degradation
# [9] = Drug degradation in sodium phosphate buffer at pH 7 after 1 hr by NMR analysis; assay type: physicochemical; conditions: read-out: Drug degradation
# [10] = Drug degradation in MES buffer at pH 6.5 after 30 mins by NMR analysis; assay type: physicochemical; conditions: read-out: Drug degradation
# [11] = Drug degradation in MES buffer at pH 6 after 30 mins by NMR analysis; assay type: physicochemical; conditions: read-out: Drug degradation
# [12] = Drug degradation in sodium phosphate buffer at pH 7 after 24 hrs by NMR analysis; assay type: physicochemical; conditions: read-out: Drug degradation
# [13] = Drug degradation in MES buffer at pH 6.5 after 1 hr by NMR analysis; assay type: physicochemical; conditions: read-out: Drug degradation
# Acetylcholinesterase [14] = molecular target: T1, Acetylcholinesterase; experiment: Inhibition of AChE (unknown origin)
# Acetylcholinesterase [15] = molecular target: Acetylcholinesterase (Musca domestica, UniProt Q7YWJ9); experiment: Inhibition of housefly CSMA AChE
# Sequence of Acetylcholinesterase (Musca domestica, UniProt Q7YWJ9) (Q7YWJ9 whole entry): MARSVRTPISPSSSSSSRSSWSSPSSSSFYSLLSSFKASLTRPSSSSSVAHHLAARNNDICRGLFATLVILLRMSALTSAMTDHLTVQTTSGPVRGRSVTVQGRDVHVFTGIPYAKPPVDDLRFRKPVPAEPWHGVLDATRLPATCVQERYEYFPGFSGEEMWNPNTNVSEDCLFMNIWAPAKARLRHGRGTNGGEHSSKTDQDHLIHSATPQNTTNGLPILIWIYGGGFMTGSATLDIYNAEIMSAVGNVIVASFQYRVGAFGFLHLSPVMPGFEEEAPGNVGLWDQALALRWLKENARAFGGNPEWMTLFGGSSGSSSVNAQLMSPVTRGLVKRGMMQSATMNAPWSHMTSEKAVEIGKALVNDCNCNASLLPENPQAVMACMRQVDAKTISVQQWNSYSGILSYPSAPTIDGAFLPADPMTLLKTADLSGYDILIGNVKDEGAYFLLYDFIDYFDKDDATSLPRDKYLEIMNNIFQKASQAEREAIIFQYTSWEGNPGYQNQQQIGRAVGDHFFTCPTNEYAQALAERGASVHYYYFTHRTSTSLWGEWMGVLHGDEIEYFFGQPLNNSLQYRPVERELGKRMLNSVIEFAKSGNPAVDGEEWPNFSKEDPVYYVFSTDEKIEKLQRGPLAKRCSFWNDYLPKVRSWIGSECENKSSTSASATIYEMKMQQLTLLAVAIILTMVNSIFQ
# Acetylcholinesterase [16] = molecular target: T1, Acetylcholinesterase; experiment: Irreversible inhibition of AChE (unknown origin)
# T1 sequence (P22303 whole entry): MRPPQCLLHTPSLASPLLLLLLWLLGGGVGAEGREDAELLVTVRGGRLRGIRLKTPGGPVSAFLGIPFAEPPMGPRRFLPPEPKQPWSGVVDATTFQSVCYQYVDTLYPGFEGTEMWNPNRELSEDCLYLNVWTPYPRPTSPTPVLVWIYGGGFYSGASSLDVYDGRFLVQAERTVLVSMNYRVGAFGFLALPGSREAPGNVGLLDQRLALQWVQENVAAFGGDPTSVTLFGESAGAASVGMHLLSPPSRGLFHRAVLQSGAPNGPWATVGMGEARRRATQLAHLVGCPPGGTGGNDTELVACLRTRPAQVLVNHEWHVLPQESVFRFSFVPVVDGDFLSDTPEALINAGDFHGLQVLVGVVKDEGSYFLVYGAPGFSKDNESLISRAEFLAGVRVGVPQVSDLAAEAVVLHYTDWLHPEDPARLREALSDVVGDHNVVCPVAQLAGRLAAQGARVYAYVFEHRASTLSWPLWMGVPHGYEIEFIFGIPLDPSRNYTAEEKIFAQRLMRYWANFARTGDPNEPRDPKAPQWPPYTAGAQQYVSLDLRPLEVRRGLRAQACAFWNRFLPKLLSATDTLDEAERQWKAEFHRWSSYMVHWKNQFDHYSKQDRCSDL
SMILES,IC50 (Acetylcholinesterase [1]) [µM],IC50 (Acetylcholinesterase [2]) [µM],degraded at 24 h [3] [%],degraded at 1 h [4] [%],degraded at 0.5 h [5] [%],also measured
CCOP1(=O)CCCC(C(=O)OC)=C(C)O1 (configuration not stated),8.9,7.5,,,,
COC(=O)C1=C(C)OP(=O)(OC)CCC1 (configuration not stated),26,12,9.6,2,2,
"COP1(=O)OC[C@@H]2COC(=O)C2=C(C)O1 (single isomer, unassigned)",,0.035,,,,
CCOP1(=O)OC(C)=C(C(=O)OC)CCC1(F)F (configuration not stated),> 100,> 100,100,50,5,degraded at 0.5 h [6]: 20%; degraded at 24 h [7]: 65%; degraded at 1 h [8]: 4.1%; degraded at 1 h [9]: 34%; degraded at 0.5 h [10]: 2.8%; degraded at 0.5 h [11]: 0.5%; degraded at 24 h [12]: 100%; degraded at 1 h [13]: 7.2%
COC(=O)C1=C(C)OP(=O)(OC)OCC1 (configuration not stated),1.04,1.03,57,4,0,
COP1(=O)OCCC(C(=O)OC(C)(C)C)=C(C)O1 (configuration not stated),6.1,5.9,,,,
"COP1(=O)OC[C@H]2COC(=O)C2=C(C)O1 (single isomer, unassigned) [CYCLOPHOSTIN]",,0.04,,,,IC50 (Acetylcholinesterase [14]): 0.045 µM; IC50 (Acetylcholinesterase [15]): 0.00076 µM; Ki (Acetylcholinesterase [16]): 0.14 µM
